Laboratory results from US20090215783A1, “COMPOSITION FOR INDUCTION OR INHIBITION OF STEM CELL DIFFERENTIATION” (CHOONGWAE PHARMA CORPORATION, priority 2006, published 2009).

Tests used:
[1] = tested on: Mouse embryonic stem (ES) cells, TC1; test: Cardiomyogenesis modulating activity assay (alpha-MHC promoter EGFP, embryoid bodies, FACS/fluorescence microscopy); format: cell-based; conditions: embryoid bodies treated for 5 days, FACS
Protocol: a. Cell culture: Mouse embryonic stem (ES) cells, TC1 derived from 129/S6 strain were cultured on irradiated feeder layer in the culture medium which is high-glucose DMEM (Gibco) BRL, Germany) supplemented with 15% FBS (Hyclone), 0.1 mM beta-mercaptoethanol, […] sodium pyruvate, 1 mM L-glutamine and 1× non-essential amino acids.
b. Establishment of alpha-MHC stably transformed ES cell line: A construct (FIG. 8) containing 1.8 kb promoter sequence of the mouse alpha-MHC gene between EcoRI and SalI sites of pEGFP-1 (Clontech Laboratories, Inc, CA, USA) was linearized at XhoI site, and was introduced into mouse ES cells, TC1, using the Gene Pulser II (BioRad, MA). A selection medium containing G418 was applied for two weeks from 24 hours after electroporation. The selected ES cell clones were harvested and expanded on the feeder cell layer. The green fluorescence-expressing clones when differentiated into cardiomyocytes were used in this experiment.
c. Cardiomyogenesis modulating activity assay: Embryoid body (EB) was formed by hanging drop culture using about a number of 600 (six hundred) ES cells for two days and it was further expanded by culturing in suspension condition on a Petri-dish for another two days. Then each EB was plated on a well of 96 well culture plates. Test compounds were dissolved in DMSO and diluted with culture media (final 0.05% DMSO) and EB was treated with test compound for 5 days. Culture medium was changed every three days after plating. Expression level of EGFP was measured with FACS (Beckman). For FACS analysis, differentiating cells were dissociated with trypsin. For the determination of the extent of differentiation, EB was observed and photographed with an inverted fluorescence microscope (Zeiss, Germany). Number of beating EBs was counted under the microscope and recorded once daily.

[2] = tested on: human bone marrow derived-mesenchymal stem cells (hBMMSC); test: Osteogenesis modulating activity assay by test compound alone (ALP activity); format: cell-based; conditions: Homo sapiens, 168 h; hBMMSC, 20 μM test compound alone, six to seven days; read-out: Osteogenesis: fold change of ALP activity compared with DMSO control
Protocol: Cell culture: Human bone marrow derived-mesenchymal stem cells (hBMMSC) were isolated from normal subjects.
Osteogenesis modulating activity assay by test compound alone: hBMMSC were cultivated in the culture medium and cells were seeded into 96-well culture plates and test compounds were dissolved in DMSO and diluted with culture media (final 0.01% DMSO) and added into the media (final concentration of test compound was 20 μM) and cultured in the CO2 incubator (37° C., 5% CO2). Culture medium was changed every two days with fresh one and compound was treated again whenever medium was changed. Six to seven days after incubation, Alkaline phosphatase activity of cell lysates was measured by colorimetry. For the determination of mineralization within the cells, Von Kossa staining or Alizarin Red S assay was performed 10-14 days after incubation.

Row | Compound | Cardiomyogenesis: fold change of EGFP expression level compared with DMSO control [1] [fold] | fold induction at 20 µM [2]
1 | CC(C)[C@H]1C(=O)N(Cc2cccc(Br)c2)C[C@H]2N1C(=O)N(C)N2C(=O)NCc1ccccc1 [#106] | 1.25 | 0.37
2 | CN1CC(=O)N2[C@@H](CCc3ccccc3)C(=O)N(CCc3ccccc3)C[C@@H]2N1C(=O)NCc1ccccc1 [#33] | 0.28 | 1.85
3 | CC(C)[C@H]1C(=O)N(Cc2cccc(F)c2)C[C@H]2N1C(=O)CN(Cc1ccccc1)N2C(=O)NCc1ccccc1 [#55] | 1.26 | 0.98
4 | CCCCNC(=O)N1[C@H]2CN(CCc3ccc(OC)cc3)C(=O)[C@H](Cc3ccc(O)cc3)N2C(=O)CN1Cc1ccc(C)cc1 [#96] | 0.54 | 0.77
5 | C#CCN1CC(=O)N2C(Cc3ccc(C)cc3)C(=O)N(CCCCCCC)C[C@@H]2N1C(=O)NCc1ccccc1 (some centres unmarked) [#51] | 0.49 | 0.31
6 | Cc1ccc(C[C@H]2C(=O)N(CCc3ccc(Cl)cc3)C[C@H]3N2C(=O)CN(Cc2ccccc2)N3C(=O)NCc2ccccc2)cc1 [#78] | 1.70 | 0.75
7 | O=C1[C@H](COCc2ccccc2)N2C(=O)CN(Cc3ccccc3)N(C(=O)NCc3ccccc3)[C@H]2CN1CCc1ccc(Cl)cc1 [#73] | 1.57 | 0.64
8 | C=CCN1CC(=O)N2[C@@H](CC(C)C)C(=O)N(CCc3ccccc3)C[C@@H]2N1C(=O)NCc1ccccc1 [#86] | 1.34 | 0.54
9 | CC(C)C[C@H]1C(=O)N(CCOc2ccccc2N)CC2N1C(=O)CN(C)N2C(=O)NCc1ccccc1 (some centres unmarked) [#3] | 1.25 | 1.29
10 | CCC(C)[C@H]1C(=O)N(CCC(c2ccccc2)c2ccccc2)C[C@H]2N1C(=O)N(C)N2C(=O)NCc1ccccc1 (some centres unmarked) [#103] | 1.98 | 0.98
11 | C=CCOC(=O)NCCC[C@@H]1C(=O)N(CCc2ccccc2)C[C@H]2N1C(=O)CN(CC=C)N2C(=O)NCc1ccccc1 [#91] | 2.23 | 1.13
12 | CCCCNC(=O)N1[C@H]2CN([C@@H](C)c3ccccc3)C(=O)[C@H](CC(=O)O)N2C(=O)CN1Cc1ccc(C)cc1 [#49] | 1.14 | 
13 | CN1CC(=O)N2[C@@H](CN(Cc3cccc(Cl)c3)C(=O)[C@H]2c2ccc(O)cc2)N1C(=O)NCc1ccccc1 [#8] | 0.65 | 0.55
14 | C=CCN1CC(=O)N2[C@@H](Cc3ccc(O)cc3)C(=O)N(Cc3ccc(F)c4scnc34)C[C@@H]2N1C(=O)NCc1ccccc1F [#14] |  | 0.29
15 | C=CCN1CC(=O)N2[C@@H](Cc3ccc(F)cc3)C(=O)N(Cc3ccc(F)cc3)C[C@@H]2N1C(=O)NCc1ccccc1 [#85] | 1.65 | 0.62
16 | COc1ccc(CN2C[C@H]3N(C(=O)CN(C)N3C(=O)NCc3ccccc3)[C@@H](CC(C)C)C2=O)cc1 [#20] | 2.17 | 1.06
17 | O=C1[C@H](Cc2ccc(Cl)cc2)N2C(=O)CN(Cc3ccc(F)cc3)N(C(=O)NCc3ccccc3)[C@H]2CN1Cc1cccc(C(F)(F)F)c1 [#72] | 1.76 | 0.84
18 | C#CCNC(=O)N1[C@H]2CN(Cc3cccc4ccccc34)C(=O)[C@H](Cc3ccc(O)cc3)N2C(=O)CN1C [#12] | 1.27 | 0.76
19 | COc1ccc(C[C@H]2C(=O)N(Cc3cccc(C(F)(F)F)c3)C[C@H]3N2C(=O)CN(Cc2ccc(F)cc2)N3C(=O)NCc2ccccc2)cc1 [#65] | 2.54 | 1.34
20 | CCC(C)[C@H]1C(=O)N(Cc2cccc(F)c2)C[C@H]2N1C(=O)CN(Cc1ccccc1)N2C(=O)NCc1ccccc1 (some centres unmarked) [#57] | 0.43 | 0.64

Row | Compound | Cardiomyogenesis: fold change of EGFP expression level compared with DMSO control [1] [fold] | fold induction at 20 µM [2]
21 | CCCCNC(=O)N1C2CN(CCc3ccc(OC)cc3)C(=O)[C@H](CC(=O)O)N2C(=O)CN1Cc1ccc(C)cc1 (some centres unmarked) [#98] | 3.34 | 0.26
22 | COc1ccc(C[C@H]2C(=O)N(CCc3ccc(Cl)cc3)C[C@H]3N2C(=O)CN(Cc2ccccc2)N3C(=O)NCc2ccccc2)cc1 [#76] | 1.24 | 1.58
23 | O=C1[C@H](Cc2ccc(F)cc2)N2C(=O)CN(Cc3ccc(F)cc3)N(C(=O)NCc3ccccc3)[C@H]2CN1Cc1cccc(C(F)(F)F)c1 [#70] | 0.92 | 1.03
24 | C=CCN1CC(=O)N2C(CN(CCc3ccccc3)C(=O)[C@@H]2CCC(=O)O)N1C(=O)NCc1ccccc1 (some centres unmarked) [#89] | 1.26 | 1.16
25 | CC(C)CN1C[C@H]2N(C(=O)CN(C)N2C(=O)NCc2ccccc2)[C@@H](Cc2ccc(O)cc2)C1=O [#15] | 0.41 | 1.12
26 | CCCC[C@H]1C(=O)N(CCc2ccc(OC)c(OC)c2)C[C@H]2N1C(=O)N(C)N2C(=O)NCc1ccccc1 [#102] | 1.01 | 1.61
27 | O=C1[C@H](COCc2ccccc2)N2C(=O)CN(Cc3ccc(F)cc3)N(C(=O)NCc3ccccc3)C2CN1Cc1cccc(C(F)(F)F)c1 (some centres unmarked) [#62] | 0.89 | 
28 | CCC(CC)N1CC2N(C(=O)N(C)N2C(=O)NCc2ccccc2)[C@@H](Cc2ccc(O)cc2)C1=O (some centres unmarked) [#104] | 0.62 | 1.42
29 | CCCCNC(=O)N1[C@H]2CN([C@@H](C)c3ccccc3)C(=O)[C@H](CCC)N2C(=O)CN1Cc1ccc(C)cc1 [#48] | 1.02 | 
30 | O=C1[C@H](c2ccccc2)N2C(=O)CN(Cc3ccccc3)N(C(=O)NCc3ccccc3)[C@H]2CN1Cc1cccc(F)c1 [#60] | 1.23 | 
31 | CCCCNC(=O)N1[C@H]2CN([C@@H](C)c3ccccc3)C(=O)[C@H](Cc3ccc(O)cc3)N2C(=O)CN1Cc1ccc(C)cc1 [#45] |  | 1.08
32 | O=C1[C@H](Cc2ccc(O)cc2)N2C(=O)CN(Cc3ccccc3)N(C(=O)NCc3ccccc3)C2CN1Cc1cccc(F)c1 (some centres unmarked) [#53] | 1.95 | 
33 | CCCCNC(=O)N1[C@H]2CN([C@@H](C)c3ccccc3)C(=O)[C@H](Cc3ccccc3)N2C(=O)CN1Cc1ccc(C)cc1 [#47] | 2.32 | 
34 | C#CCN1CC(=O)N2C(Cc3ccc(Cl)cc3)C(=O)N(CCCCCCC)C[C@@H]2N1C(=O)NCc1ccccc1 (some centres unmarked) [#52] | 1.99 | 
35 | O=C1[C@@H](Cc2ccccc2)N2C(=O)CN(Cc3ccc(F)cc3)N(C(=O)NCc3ccccc3)[C@@H]2CN1Cc1cccc(C(F)(F)F)c1 [#61] | 1.06 | 
36 | CCCCNC(=O)N1[C@H]2CN([C@@H](C)c3ccccc3)C(=O)[C@H](CCC(=O)O)N2C(=O)CN1Cc1ccc(C)cc1 [#50] | 0.26 | 
37 | O=C(O)C[C@H]1C(=O)N(Cc2cccc(F)c2)C[C@H]2N1C(=O)CN(Cc1ccccc1)N2C(=O)NCc1ccccc1 [#59] | 0.48 | 
38 | CCC[C@H]1C(=O)N(Cc2cccc(F)c2)C[C@H]2N1C(=O)CN(Cc1ccccc1)N2C(=O)NCc1ccccc1 [#58] | 1.91 | 
39 | CC(C)C[C@H]1C(=O)N(Cc2cccc(F)c2)C[C@H]2N1C(=O)CN(Cc1ccccc1)N2C(=O)NCc1ccccc1 [#54] | 1.42 | 
40 | O=C1[C@H](Cc2ccccc2)N2C(=O)CN(Cc3ccccc3)N(C(=O)NCc3ccccc3)[C@H]2CN1Cc1cccc(F)c1 [#56] | 1.08 | 
